Laboratory results from patent US10918648B2, “Estrogen receptor modulator combinations” (The Regents of the University of California, priority 2016, dated 2021).
Where two headings read alike, the source gives them in different places.

Assays:
[1] = tested on: H2122 NSCLC cells; experiment: NSCLC cell proliferation in vitro (MTS assay); format: cell-based, human; settings: 72 hours
Method: (§1) Cell culture: Human breast and non-small cell lung cancer cells (MCF7, ZR75-1, MDAMB231, A549, H23, H1975, […]) were from ATCC. MCF7-HER2 were a kind gift of Dr. Dennis Slamon (23). Cell lines were routinely maintained in RPMI 1640 or DMEM medium with 10% fetal bovine serum (FBS) (Sigma-Aldrich) and 1% Antibiotic-Antimycotic solution 100× (Mediatech, Herndon, Va.). When indicated, for estrogen-free conditions, media was changed 48 h before experiments to phenol-red free RPMI 1640/DMEM with 1% dextran-coated, charcoal-treated (DCC)-FBS (24,25). Otherwise experiments were performed in phenol-red free RPMI 1640/DMEM medium with 5% DCC-FBS.
(§2) Cell proliferation assays: breast and lung tumor cells (between […]) were plated in 96 well plates using their respective medium with 10% FBS. For experiments using estradiol-17β, cells were rinsed with PBS and incubated with phenol redfree medium with 1% DCC-FBS for 48 hours as described before (24,25). Cells were then treated with different concentrations of SERDs ranging between 0.0001-100 μM. […] Cell counts and viability tests (Trypan blue) were done every 24 hr for 3 days. After 72 hr, proliferation was assessed with the MTS Assay CELLTITER 96® Aqueous Cell Proliferation Assay (Promega) or the Cell Proliferation ELISA, BrdU colorimetric assay (Roche). For the MTS, the absorbance of the formazan product was measured at 490 nanometer using the iMARK microplate reader from BIORAD. The BrdU ELISA assay is based on detection of BrdU incorporated into the genomic DNA of proliferating cells and an anti-BrdU antibody, the reaction product was quantified by measuring the absorbance at 370 nanometers using iMARK microplate reader from BIORAD. Cell numbers were also assessed initially by cell counts to confirm MTS/BrdU data. Experiments were done at least three times to confirm data.

[2] = tested on: H1975 NSCLC cells; experiment: NSCLC cell proliferation in vitro (MTS assay); format: cell-based, human; settings: 72 hours
Method: as §1, §2

[3] = target: T1, estrogen receptor-alpha (Homo sapiens, UniProt P03372); experiment: ER down-regulation, Western immunoblot of ERα protein in MCF-7 cells; format: cell-based; settings: for estrogen receptor-alpha expression (ERα protein levels, Western immunoblot): 1 μM or 10 μM, 48 hrs, in the presence of 1 nM estradiol, FIG. 3A
T1 construct: MCF-7 breast cancer cells with high expression of ERα protein were treated with; endogenous in cells; host or cells: MCF-7 human breast cancer cells
T1 sequence (P03372 1-595): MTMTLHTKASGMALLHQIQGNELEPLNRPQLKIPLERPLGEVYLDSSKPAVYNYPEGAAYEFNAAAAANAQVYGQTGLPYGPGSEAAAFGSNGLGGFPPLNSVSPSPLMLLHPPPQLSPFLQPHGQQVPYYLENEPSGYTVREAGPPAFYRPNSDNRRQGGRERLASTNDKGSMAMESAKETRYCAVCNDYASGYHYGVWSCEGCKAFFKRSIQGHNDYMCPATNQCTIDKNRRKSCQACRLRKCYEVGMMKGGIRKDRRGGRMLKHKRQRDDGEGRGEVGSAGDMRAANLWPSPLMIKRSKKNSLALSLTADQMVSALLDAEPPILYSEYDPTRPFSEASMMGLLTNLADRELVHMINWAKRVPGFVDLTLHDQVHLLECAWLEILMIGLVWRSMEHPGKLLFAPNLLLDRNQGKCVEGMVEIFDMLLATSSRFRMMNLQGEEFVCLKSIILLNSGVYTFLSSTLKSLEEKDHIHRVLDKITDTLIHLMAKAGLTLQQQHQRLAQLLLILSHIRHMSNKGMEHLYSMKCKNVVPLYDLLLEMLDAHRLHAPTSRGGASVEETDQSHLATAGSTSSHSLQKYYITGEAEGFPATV
Method: MCF-7 breast cancer cells were maintained in estrogen-free conditions 48 h before experiments as described above. Cells were then incubated with vehicle control or either 1 μM or 10 μM antiestrogens in the presence of 1 nM estradiol-1713 for 48 hrs. After lysis, total cell proteins were resolved by 4-15% SDS-PAGE, transferred to polyvinylidene difluoride membranes and probed with mouse monoclonal antibody directed against estrogen receptor-alpha (Assay Designs, #SRA1010). Membranes were stripped and re-probed with Ribosomal Protein L13A (Santa Cruz Biotechnology, C11) as a loading control (45).
Fulvestrant (Faslodex®) has been characterized as a selective ERα downregulator and a pure anti-estrogen. Fulvestrant inhibits the transcriptional response to estrogen stimulation and induces the degradation of estrogen receptor proteins (46,47). […] One problem with fulvestrant is that the drug requires intramuscular injection and may not achieve optimal antitumor effects due to the limited doses that can be administered by this drug delivery method. […] MCF-7 breast cancer cells with high expression of ERα protein were treated with estradiol-170 and either 1 μM or 10 μM concentrations of JD128 and JD140 for 48 hours. […] MCF-7 breast cancer cells were estrogen-deprived for 48 hrs, then treated with 1 nM estradiol-170 (E2) or antiestrogens JD128 (128) or JD140 (140) at 1 μM or 10 μM concentrations in the presence of 1 nM estradiol-170. After 48 hrs, PAGE and immunoblotting was performed with antibody directed to anti-ERα (SRA1010) and anti-RPL13A for a loading control.
ER down-regulation: To determine if selected compounds can down-regulate ER protein, we treated cells for 24-48 hrs in vitro with candidate compounds at varying doses. Then, cells were disrupted and prepared for PAGE and Western immunoblots using anti-ERα antibodies (see FIG. 6A). […] Those ERDs with optimal activity in down-regulating ER were investigated further in the chemistry laboratory to further refine and develop such agents. […]

[4] = Homo sapiens, NCI-H2122, SERD alone, estrogen-depleted phenol red-free medium with 5% DCC-FBS, read-out: IC50 for inhibition of NSCLC cell proliferation, H2122
[5] = in the presence of 1 μM abemaciclib, 5% DCC-FBS, read-out: IC50 of SERD for inhibition of NSCLC cell proliferation, H2122
[6] = in the presence of 1 μM palbociclib, 5% DCC-FBS, read-out: IC50 of SERD for inhibition of NSCLC cell proliferation, H2122
[7] = Homo sapiens, NCI-H1975, SERD alone, estrogen-depleted phenol red-free medium with 5% DCC-FBS, read-out: IC50 for inhibition of NSCLC cell proliferation, H1975
[8] = in the presence of 1 μM palbociclib, 5% DCC-FBS, read-out: IC50 of SERD for inhibition of NSCLC cell proliferation, H1975

Row | Compound | IC50 [1, 4] [nM] | IC50 [1, 5] [nM] | IC50 [1, 6] [nM] | IC50 [2, 7] [nM] | IC50 ([2]; in the presence of 1 μM abemaciclib, 5% DCC-FBS, read-out: IC50 of SERD for inhibition of NSCLC cell proliferation, H1975) [nM] | IC50 [2, 8] [nM] | ER protein levels (Western immunoblot) ([3]; 24 hours, 10, 100 and 1000 nM, FIG. 6A) | estrogen receptor-alpha expression (ERα protein levels, Western immunoblot) [3]
1 | C[C@]12C[C@H](Oc3ccc(N)cc3)[C@@H]3c4ccc(O)cc4CC[C@H]3[C@@H]1CC[C@@H]2O [JD105, (8S,9S,11S,13S,14S,17S)-11-(4-aminophenoxy)-13-methyl-7,8,9,11,12,13,14,15,16,17-decahydro-6H-cyclopenta[a]phenanthrene-3,17-diol] | 3830 | 1480 | 4200 | 4500 | 1060 | 4780 | reduces ER protein levels | –
2 | C[C@]12C[C@H](Oc3ccc(N)c(C(F)(F)F)c3)[C@@H]3c4ccc(O)cc4CC[C@H]3[C@@H]1CC[C@@H]2O [JD128, (8S,9S,11S,13S,14S,17S)-11-(4-Amino-3-(trifluoromethyl)phenoxy)-13-methyl-7,8,9,11,12,13,14,15,16,17-decahydro-6H-cyclopenta[a]phenanthrene-3,17-diol] | 1310 | 230 | 960 | – | – | 12400 | – | greatest effect at suppressing estrogen receptor-alpha expression
3 | C[C@]12C[C@H](Oc3ccc(NC(=O)CCCCN4CCCCC4)c(F)c3)[C@@H]3c4ccc(O)cc4CC[C@H]3[C@@H]1CC[C@@H]2O [JD140, N-(4-(((8S,9S,11S,13S,14S,17S)-3,17-Dihydroxy-13-methyl-7,8,9,11,12,13,14,15,16,17-deca-hydro-6H-cyclopenta[a]phenanthren-11-yl)oxy)-2-fluorophenyl)-5-(piperidin-1-yl)pentan-amide] | 1140 | 30 | 1110 | 1860 | – | 17100 | – | down-regulated
